{"source": "BigSolDB 2.1"}
{"smiles": "NC(=O)c1cccnc1Cl", "values": [{"measurement": "solubility (mole fraction)", "setting": "in 1,4-dioxane, 288.15 K", "result": 0.00632}, {"measurement": "solubility (mole fraction)", "setting": "in 1,4-dioxane, 293.15 K", "result": 0.0077}, {"measurement": "solubility (mole fraction)", "setting": "in 1,4-dioxane, 298.15 K", "result": 0.00958}, {"measurement": "solubility (mole fraction)", "setting": "in 1,4-dioxane, 303.15 K", "result": 0.0118}, {"measurement": "solubility (mole fraction)", "setting": "in 1,4-dioxane, 308.15 K", "result": 0.0136}, {"measurement": "solubility (mole fraction)", "setting": "in 1,4-dioxane, 313.15 K", "result": 0.0168}, {"measurement": "solubility (mole fraction)", "setting": "in 1,4-dioxane, 318.15 K", "result": 0.02}, {"measurement": "solubility (mole fraction)", "setting": "in 1,4-dioxane, 323.15 K", "result": 0.0244}, {"measurement": "solubility (mole fraction)", "setting": "in 2-ethoxyethanol, 278.15 K", "result": 0.0124}, {"measurement": "solubility (mole fraction)", "setting": "in 2-ethoxyethanol, 283.15 K", "result": 0.0154}, {"measurement": "solubility (mole fraction)", "setting": "in 2-ethoxyethanol, 288.15 K", "result": 0.0182}, {"measurement": "solubility (mole fraction)", "setting": "in 2-ethoxyethanol, 293.15 K", "result": 0.0224}, {"measurement": "solubility (mole fraction)", "setting": "in 2-ethoxyethanol, 298.15 K", "result": 0.0267}, {"measurement": "solubility (mole fraction)", "setting": "in 2-ethoxyethanol, 303.15 K", "result": 0.0311}, {"measurement": "solubility (mole fraction)", "setting": "in 2-ethoxyethanol, 308.15 K", "result": 0.0375}, {"measurement": "solubility (mole fraction)", "setting": "in 2-ethoxyethanol, 313.15 K", "result": 0.0437}, {"measurement": "solubility (mole fraction)", "setting": "in 2-ethoxyethanol, 318.15 K", "result": 0.0524}, {"measurement": "solubility (mole fraction)", "setting": "in 2-ethoxyethanol, 323.15 K", "result": 0.0615}, {"measurement": "solubility (mole fraction)", "setting": "in 2-methoxyethanol, 278.15 K", "result": 0.0205}, {"measurement": "solubility (mole fraction)", "setting": "in 2-methoxyethanol, 283.15 K", "result": 0.0246}, {"measurement": "solubility (mole fraction)", "setting": "in 2-methoxyethanol, 288.15 K", "result": 0.0293}, {"measurement": "solubility (mole fraction)", "setting": "in 2-methoxyethanol, 293.15 K", "result": 0.0352}, {"measurement": "solubility (mole fraction)", "setting": "in 2-methoxyethanol, 298.15 K", "result": 0.0413}, {"measurement": "solubility (mole fraction)", "setting": "in 2-methoxyethanol, 303.15 K", "result": 0.0478}, {"measurement": "solubility (mole fraction)", "setting": "in 2-methoxyethanol, 308.15 K", "result": 0.0542}, {"measurement": "solubility (mole fraction)", "setting": "in 2-methoxyethanol, 313.15 K", "result": 0.0642}, {"measurement": "solubility (mole fraction)", "setting": "in 2-methoxyethanol, 318.15 K", "result": 0.0747}, {"measurement": "solubility (mole fraction)", "setting": "in 2-methoxyethanol, 323.15 K", "result": 0.0856}, {"measurement": "solubility (mole fraction)", "setting": "in DMAc, 278.15 K", "result": 0.132}, {"measurement": "solubility (mole fraction)", "setting": "in DMAc, 283.15 K", "result": 0.141}, {"measurement": "solubility (mole fraction)", "setting": "in DMAc, 288.15 K", "result": 0.152}, {"measurement": "solubility (mole fraction)", "setting": "in DMAc, 293.15 K", "result": 0.163}, {"measurement": "solubility (mole fraction)", "setting": "in DMAc, 298.15 K", "result": 0.175}, {"measurement": "solubility (mole fraction)", "setting": "in DMAc, 303.15 K", "result": 0.187}, {"measurement": "solubility (mole fraction)", "setting": "in DMAc, 308.15 K", "result": 0.199}, {"measurement": "solubility (mole fraction)", "setting": "in DMAc, 313.15 K", "result": 0.213}, {"measurement": "solubility (mole fraction)", "setting": "in DMAc, 318.15 K", "result": 0.227}, {"measurement": "solubility (mole fraction)", "setting": "in DMAc, 323.15 K", "result": 0.24}, {"measurement": "solubility (mole fraction)", "setting": "in DMF, 278.15 K", "result": 0.0981}, {"measurement": "solubility (mole fraction)", "setting": "in DMF, 283.15 K", "result": 0.107}, {"measurement": "solubility (mole fraction)", "setting": "in DMF, 288.15 K", "result": 0.115}, {"measurement": "solubility (mole fraction)", "setting": "in DMF, 293.15 K", "result": 0.126}, {"measurement": "solubility (mole fraction)", "setting": "in DMF, 298.15 K", "result": 0.137}, {"measurement": "solubility (mole fraction)", "setting": "in DMF, 303.15 K", "result": 0.149}, {"measurement": "solubility (mole fraction)", "setting": "in DMF, 308.15 K", "result": 0.161}, {"measurement": "solubility (mole fraction)", "setting": "in DMF, 313.15 K", "result": 0.175}, {"measurement": "solubility (mole fraction)", "setting": "in DMF, 318.15 K", "result": 0.188}, {"measurement": "solubility (mole fraction)", "setting": "in DMF, 323.15 K", "result": 0.202}, {"measurement": "solubility (mole fraction)", "setting": "in ethanol, 278.15 K", "result": 0.00303}, {"measurement": "solubility (mole fraction)", "setting": "in ethanol, 283.15 K", "result": 0.00366}, {"measurement": "solubility (mole fraction)", "setting": "in ethanol, 288.15 K", "result": 0.00443}, {"measurement": "solubility (mole fraction)", "setting": "in ethanol, 293.15 K", "result": 0.00539}, {"measurement": "solubility (mole fraction)", "setting": "in ethanol, 298.15 K", "result": 0.00698}, {"measurement": "solubility (mole fraction)", "setting": "in ethanol, 303.15 K", "result": 0.00821}, {"measurement": "solubility (mole fraction)", "setting": "in ethanol, 308.15 K", "result": 0.0101}, {"measurement": "solubility (mole fraction)", "setting": "in ethanol, 313.15 K", "result": 0.0124}, {"measurement": "solubility (mole fraction)", "setting": "in ethanol, 318.15 K", "result": 0.0147}, {"measurement": "solubility (mole fraction)", "setting": "in ethanol, 323.15 K", "result": 0.0178}, {"measurement": "solubility (mole fraction)", "setting": "in ethylene glycol, 278.15 K", "result": 0.00783}, {"measurement": "solubility (mole fraction)", "setting": "in ethylene glycol, 283.15 K", "result": 0.00946}, {"measurement": "solubility (mole fraction)", "setting": "in ethylene glycol, 288.15 K", "result": 0.0114}, {"measurement": "solubility (mole fraction)", "setting": "in ethylene glycol, 293.15 K", "result": 0.0136}, {"measurement": "solubility (mole fraction)", "setting": "in ethylene glycol, 298.15 K", "result": 0.0167}, {"measurement": "solubility (mole fraction)", "setting": "in ethylene glycol, 303.15 K", "result": 0.0201}, {"measurement": "solubility (mole fraction)", "setting": "in ethylene glycol, 308.15 K", "result": 0.024}, {"measurement": "solubility (mole fraction)", "setting": "in ethylene glycol, 313.15 K", "result": 0.0283}, {"measurement": "solubility (mole fraction)", "setting": "in ethylene glycol, 318.15 K", "result": 0.034}, {"measurement": "solubility (mole fraction)", "setting": "in ethylene glycol, 323.15 K", "result": 0.0403}, {"measurement": "solubility (mole fraction)", "setting": "in methanol, 278.15 K", "result": 0.00747}, {"measurement": "solubility (mole fraction)", "setting": "in methanol, 283.15 K", "result": 0.00893}, {"measurement": "solubility (mole fraction)", "setting": "in methanol, 288.15 K", "result": 0.0104}, {"measurement": "solubility (mole fraction)", "setting": "in methanol, 293.15 K", "result": 0.0122}, {"measurement": "solubility (mole fraction)", "setting": "in methanol, 298.15 K", "result": 0.0148}, {"measurement": "solubility (mole fraction)", "setting": "in methanol, 303.15 K", "result": 0.0171}, {"measurement": "solubility (mole fraction)", "setting": "in methanol, 308.15 K", "result": 0.0204}, {"measurement": "solubility (mole fraction)", "setting": "in methanol, 313.15 K", "result": 0.0238}, {"measurement": "solubility (mole fraction)", "setting": "in methanol, 318.15 K", "result": 0.0278}, {"measurement": "solubility (mole fraction)", "setting": "in methanol, 323.15 K", "result": 0.0324}, {"measurement": "solubility (mole fraction)", "setting": "in methyl acetate, 278.15 K", "result": 0.00215}, {"measurement": "solubility (mole fraction)", "setting": "in methyl acetate, 283.15 K", "result": 0.00263}, {"measurement": "solubility (mole fraction)", "setting": "in methyl acetate, 288.15 K", "result": 0.00331}, {"measurement": "solubility (mole fraction)", "setting": "in methyl acetate, 293.15 K", "result": 0.0041}, {"measurement": "solubility (mole fraction)", "setting": "in methyl acetate, 298.15 K", "result": 0.00506}, {"measurement": "solubility (mole fraction)", "setting": "in methyl acetate, 303.15 K", "result": 0.00587}, {"measurement": "solubility (mole fraction)", "setting": "in methyl acetate, 308.15 K", "result": 0.00699}, {"measurement": "solubility (mole fraction)", "setting": "in methyl acetate, 313.15 K", "result": 0.00885}, {"measurement": "solubility (mole fraction)", "setting": "in methyl acetate, 318.15 K", "result": 0.0105}, {"measurement": "solubility (mole fraction)", "setting": "in methyl acetate, 323.15 K", "result": 0.0127}, {"measurement": "solubility (mole fraction)", "setting": "in water, 278.15 K", "result": 0.00081}, {"measurement": "solubility (mole fraction)", "setting": "in water, 283.15 K", "result": 0.00102}, {"measurement": "solubility (mole fraction)", "setting": "in water, 288.15 K", "result": 0.00127}, {"measurement": "solubility (mole fraction)", "setting": "in water, 293.15 K", "result": 0.00157}, {"measurement": "solubility (mole fraction)", "setting": "in water, 298.15 K", "result": 0.00193}, {"measurement": "solubility (mole fraction)", "setting": "in water, 303.15 K", "result": 0.00237}, {"measurement": "solubility (mole fraction)", "setting": "in water, 308.15 K", "result": 0.00291}, {"measurement": "solubility (mole fraction)", "setting": "in water, 313.15 K", "result": 0.00351}, {"measurement": "solubility (mole fraction)", "setting": "in water, 318.15 K", "result": 0.00437}, {"measurement": "solubility (mole fraction)", "setting": "in water, 323.15 K", "result": 0.00546}]}
